These results are taken from patent publication US20100305303A1, “INHIBITING AGENT FOR INHIBITION OF ANGIOGENESIS, A METHOD FOR PREPARING THE AGENT, A METHOD FOR MODIFYING THE AGENT AND ITS USE FOR MANUFACTURING A MEDICAMENT FOR TREATING TUMOR” (priority 2007, published 2010).

For orientation: half-life means the time in which the quantity being followed falls by half.

One data set has as its system Bel-7402 tumor cells. The data set can be described thus: Binding of FITC labeled polypeptides to integrin-expressing tumor cells by flow cytometry. More on the design: unit not given here. To be noted: FITC labeled polypeptide, dosage 1 μg/μl, Bel-7402 cells, 25 min. The method, then:
Analysis of the binding of polypeptide s and integrin by flow cytometry. Bel-7402 tumor cells were used, which can express integrin. The cells were cultured in a 24-well plate, and the cells were collected and washed with ice-cold PBS twice. Before labeling, the cells were suspended in PBS +1% BSA, maintained for 30 min, added with 1 μl FITC labeled polypeptide s (P1, P2, P3, P4, P5, P6, P7, P8, P9, P10, P11, P12, P13, P14, P15, P16, RGD and ES-2) for reaction for 25 min. After labeling, the cells were collected and washed twice with PBS, suspended again in 400 μl PBS and analysis was conducted with a flow cytometry (Becton Dickinson, USA). FITC fluorescence was determined at FL1 channel The cells with FITC feature would be further analyzed.

The nature of data set [1]: Half-life of polypeptides in plasma at 37° C. (HPLC). It counts as in vitro ADME. To be noted: 800 μg/ml, 20 μl injected on HPLC. The protocol: Survey on the half-life of polypeptides in plasma at 37° C. after modification. Preparation of blood drug samples: after crude drug (volume V) (800 ug/ml) +1V plasma were mixed and diluted with 2V water evenly, incubated for 0, 5, 30 min at 37° C. respectively, immediately heated at 80° C. for 30 min; the negative control: after 1V plasma were diluted and mixed with 3 V water evenly, and heated for 30 min at 80° C. The positive control group: after 1V crude drug (800 ug/ml) were diluted and mixed evenly with 3V water, heated for 30 min at 80° C. The samples were the modified products, […] at 14000 rpm for 10 min. The supernatant was fetched for HPLC analysis with the injection size of 20 ul.

The next data set has as its system NIH 3T3 cells. The data set can be described thus: Cell proliferation analysis on non-endothelial cells. It counts as cell-based. To be noted: non-endothelial NIH 3T3 cells, 48 h. The method, then:
The culture of BCE cells and NIH 3T3 cells, method: the culture solution DMEM contained 10% inactivated calf serum (BCS), 1% antibiotics and 3 ng/ml bFGF. Cell proliferation analysis method is as follows: washed the cells with PBS, digested with trypsin, added with culture solution suspension cells and centrifuged and collected cells, and regulated the cell concentrations to 25,000 cells/ml. The cells were moved to 6-well plates (0.5 ml/well) and cultured for 24 h. Replaced the culture medium as 1 ml DMEM, 5% BCS, 1% antibiotics, 1 ng/ml bFGF. Different doses of samples were added to each hole, and further cultured for 48 h, digested the cells with trypsase, re-suspended in PBS, fixed with 70% ice-cold ethanol and stained with 7-AAD, and then conducted analysis with flow cytometry.

Data set [2] deals with human liver cancer SGC7901. The data set can be described thus: In vivo anti-tumor test, SGC7901 xenograft. To be noted: SGC7901 in nude mice, 3 mg/kg/d contralateral subcutaneous injection, 10th day. The method, then:
(§1) The cultured human liver cancer SGC7901 was treated with 0.05% trypsin, centrifuged at 1000 rpm for 5 min, suspended again in PBS, inoculated subcutaneously with 0.1 ml of 5×10^5 cells on the body sides of nude mice (6-8 weeks). When the average tumor size reached 100 mm^3-200 mm^3, the mice were randomly divided into three groups, 7 mice for each group, of which, one group of mice were treated with RGD-ED, one group were treated with RGD-ED modified with liposome, and the third group were treated with RGD-ED modified with polyethylene glycol, with the doses of 3 mg/kg/d for the three groups, and the control group of mice were subject to PBS injection. The treatment method was contralateral subcutaneous injection of the inoculated tumors.
as §1, with “with liposome-modified RGD-ED,” for “with RGD-ED modified with liposome,”, “with” for “with RGD-ED modified with”, “polyethylene glycol-modified RGD-ED,” for “polyethylene glycol,”, “injection. […]” for “injection. The treatment method was contralateral subcutaneous injection of the inoculated tumors.”

The next data set deals with CAMs. The data set can be described thus: CAM analysis of anti-angiogenic activity. It counts as in vivo, chick. The protocol:
To detect the in vivo anti-angiogenic activity, CAM analysis was carried out. All the tests were carried out on the ultra-clean platform under sterile conditions. The 6-day disinfected chick embryos were cultured under the condition of 37° C., 90% humidity. After 2 days, the top of each egg was punched and the reagents were dripped into the sterile Whatman filter paper, then put on the CAMs vascular clustered area, cultivated for 48 hours, and observed the chick embryos and CAMs and took pictures.

A further data set concerns B16F10 melanoma cells. The data set can be described thus: In vivo anti-tumor test, B16F10 melanoma. Particulars: B16F10 in C57BL/6 mice, 5 mg/kg/d contralateral subcutaneous injection, 9th day. The protocol: The cultured B16F10 melanoma cells were treated with 0.05% trypsin, centrifuged at 1000 rpm for 5 min, suspended again in PBS, inoculated subcutaneously with 0.1 ml of 5×10^5 cells at the body sides of C57BL/6 mice (6-8 weeks). When the average tumor size reached 200 mm3-300 mm3, the mice were randomly divided into two groups, 7 mice for each group, of which, one group of mice were treated with RGD-ED, and the other group were treated with ED not containing RGD, with the doses of 5 mg/kg/d for the two groups, and the control group of mice were subject to PBS injection. The treatment method was contralateral subcutaneous injection of the inoculated tumors.

Residues, ends and D or L forms follow the SMILES beside them. No end group written: not given here. *: point of attachment. Palmitoyl = CCCCCCCCCCCCCCCC(=O)*

Take “Ala-Cys-Asp-Cys-Arg-Gly-Asp-Cys-Phe-Cys-Ile-Val-Arg-Arg-Ala-Asp-Arg-Ala-Ala-Val-Pro-linker-Ala-Cys-Asp-Cys-Arg-Gly-Asp-Cys-Phe-Cys [P15]”: the “Binding Value” in the data set with Bel-7402 tumor cells is reported as 64.11.

Take “Arg-Gly-Asp-linker-Ile-Val-Arg-Arg-Ala-Asp-Arg-Ala-Ala-Val-Pro-Arg-Gly-Asp [P8]”: in the data set on Bel-7402 tumor cells, the “Binding Value” was 58.30.

With RGDGGGGIVRRADRAAVP [P1], the “Binding Value” in the data set on Bel-7402 tumor cells was 63.21. In data set [1], this compound returned a half-life of 7 min.

On to “Ala-Cys-Asp-Cys-Arg-Gly-Asp-Cys-Phe-Cys-linker-Ile-Val-Arg-Arg-Ala-Asp-Arg-Ala-Ala-Val-Pro [P9]”, for which, in the data set with Bel-7402 tumor cells, the “Binding Value” is reported as 66.04.

Regarding “Arg-Gly-Asp-Ile-Val-Arg-Arg-Ala-Asp-Arg-Ala-Ala-Val-Pro-linker-Arg-Gly-Asp [P7]”, in the data set with Bel-7402 tumor cells, the “Binding Value” was found to be 60.25.

Turning to RGDIVRRADRAAVPRGD [P5], the “Binding Value” in the data set with Bel-7402 tumor cells is recorded as 59.40.

In the case of “Ile-Val-Arg-Arg-Ala-Asp-Arg-Ala-Ala-Val-Pro-linker-Ala-Cys-Asp-Cys-Arg-Gly-Asp-Cys-Phe-Cys [P11]”, the “Binding Value” in the data set on Bel-7402 tumor cells is listed as 60.20.

In the case of “Ile-Val-Arg-Arg-Ala-Asp-Arg-Ala-Ala-Val-Pro-linker-Arg-Gly-Asp [P3]”, the “Binding Value” in the data set with Bel-7402 tumor cells was found to be 58.96.

Consider `CCCCCCCCCCCCCCCC(=O)N[C@@H](CCCNC(=N)N)C(=O)NCC(=O)N[C@@H](CC(=O)O)C(=O)NCC(=O)NCC(=O)NCC(=O)NCC(=O)N[C@H](C(=O)N[C@H](C(=O)N[C@@H](CCCNC(=N)N)C(=O)N[C@@H](CCCNC(=N)N)C(=O)N[C@@H](C)C(=O)N[C@@H](CC(=O)O)C(=O)N[C@@H](CCCNC(=N)N)C(=O)N[C@@H](C)C(=O)N[C@@H](C)C(=O)N[C@H](C(=O)N1CCC[C@H]1C(=O)O)C(C)C)C(C)C)[C@@H](C)CC` [Palmitic acid-modified substance] (Palmitoyl-RGDGGGGIVRRADRAAVP-OH; C-terminus assumed), for which the half-life in data set [1] was found to be 12 min.

Take “IVRRADRAAVPACDCRGDCFC (cysteine pairing not given here) [P12]”: in the data set with Bel-7402 tumor cells, the “Binding Value” is on record as 67.28.

For the compound “Ala-Cys-Asp-Cys-Arg-Gly-Asp-Cys-Phe-Cys-linker-Ile-Val-Arg-Arg-Ala-Asp-Arg-Ala-Ala-Val-Pro-Ala-Cys-Asp-Cys-Arg-Gly-Asp-Cys-Phe-Cys [P14]”, in the data set on Bel-7402 tumor cells, the “Binding Value” was 58.32.

As to “designed angiogenesis inhibitor: ED polypeptide joined to a sequence containing Arg-Gly-Asp, expressed recombinantly in E. coli; exact sequence not stated [RGD-ED]”, in the data set with NIH 3T3 cells, the “inhibitory effect on NIH 3T3 cell proliferation” value is “no inhibitory effect”. In addition, the tumor inhibition rate in data set [2] was determined as 68%; with B16F10 melanoma cells, 58%. For the same compound, the “inhibition of neovascularization and angiogenesis in CAM” value in the data set on CAMs (0.05 μg, 0.1 μg and 0.2 μg, 48 hours) is “significantly inhibit”. For the same compound, in the data set on CAMs (0.5 μg), the “chick embryo death in CAM test” value is on record as “cause chick embryo death”. The “inhibition of angiogenesis in CAM” value in the data set on CAMs (0.5 μg, 48 hours) was “completely inhibit”.

IVRRADRAAVPRGD [P4]: the “Binding Value” in the data set with Bel-7402 tumor cells is 60.13.

Regarding IVRRADRAAVP [ED, reference compound], the “Binding Value” with Bel-7402 tumor cells amounted to 18.35. Also, in the data set on B16F10 melanoma cells, the tumor inhibition rate turned out to be 28%.

For “Ala-Cys-Asp-Cys-Arg-Gly-Asp-Cys-Phe-Cys-linker-Ile-Val-Arg-Arg-Ala-Asp-Arg-Ala-Ala-Val-Pro-linker-Ala-Cys-Asp-Cys-Arg-Gly-Asp-Cys-Phe-Cys [P16]”, the “Binding Value” in the data set with Bel-7402 tumor cells came to 66.12.

Turning to RGDIVRRADRAAVP [P2], in the data set with Bel-7402 tumor cells, the “Binding Value” is 62.15.

Consider “Arg-Gly-Asp-linker-Ile-Val-Arg-Arg-Ala-Asp-Arg-Ala-Ala-Val-Pro-linker-Arg-Gly-Asp [P6]”, for which the “Binding Value” in the data set on Bel-7402 tumor cells was determined as 60.27.

As for “ACDCRGDCFCIVRRADRAAVP (cysteine pairing not given here) [P10]”, the “Binding Value” in the data set on Bel-7402 tumor cells came to 63.28.

Regarding “ACDCRGDCFCIVRRADRAAVPACDCRGDCFC (cysteine pairing not given here) [P13]”, the “Binding Value” with Bel-7402 tumor cells amounted to 59.25.

In the case of “arginine-glycine-aspartic acid [RGD, reference compound]”, in the data set on Bel-7402 tumor cells, the “Binding Value” is recorded as 59.45.
